Data: patent publication US10633366B2, “Antibacterial compounds” (AZIENDE CHIMICHE RIUNITE ANGELINI FRANCESCO A.C.R.A.F. …, priority 2016, dated 2020)
Read-outs that look alike come from different tables or passages of the source.

Columns and labels:
Assay in all cases: biochemical
[1] = target: E. coli DNA gyrase (Escherichia coli, UniProt P0AES4+P0AES6); conditions: for IC50: IC50 DNA gyrase; for inhibition at 50 µM: read-out: % inhibition DNA gyrase
[2] = target: E. coli Topoisomerase IV (Escherichia coli, UniProt P0AFI2+P20083); conditions: for IC50: IC50 Topo IV; for inhibition at 50 µM: read-out: % inhibition Topo IV
E. coli Topoisomerase IV, sequence (P0AFI2 whole entry): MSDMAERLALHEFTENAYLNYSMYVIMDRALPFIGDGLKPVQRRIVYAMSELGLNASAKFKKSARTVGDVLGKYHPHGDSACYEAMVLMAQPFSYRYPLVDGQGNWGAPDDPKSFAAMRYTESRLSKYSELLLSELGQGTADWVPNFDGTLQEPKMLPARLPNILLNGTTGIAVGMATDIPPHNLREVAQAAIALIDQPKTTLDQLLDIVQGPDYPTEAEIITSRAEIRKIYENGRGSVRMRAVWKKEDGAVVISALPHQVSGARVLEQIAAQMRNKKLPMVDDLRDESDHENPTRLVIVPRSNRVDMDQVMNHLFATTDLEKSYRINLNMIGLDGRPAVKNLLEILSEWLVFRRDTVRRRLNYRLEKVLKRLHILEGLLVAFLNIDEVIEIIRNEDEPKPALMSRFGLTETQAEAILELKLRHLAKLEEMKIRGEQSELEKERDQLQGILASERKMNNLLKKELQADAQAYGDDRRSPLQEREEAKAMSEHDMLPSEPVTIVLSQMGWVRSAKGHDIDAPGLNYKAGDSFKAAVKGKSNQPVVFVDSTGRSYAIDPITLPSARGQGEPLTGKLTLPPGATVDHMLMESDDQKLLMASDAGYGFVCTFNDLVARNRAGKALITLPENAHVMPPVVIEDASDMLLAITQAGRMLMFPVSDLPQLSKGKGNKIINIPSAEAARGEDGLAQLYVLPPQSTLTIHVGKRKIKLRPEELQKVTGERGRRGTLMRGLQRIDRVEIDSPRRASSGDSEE
E. coli Topoisomerase IV, sequence (P20083 whole entry): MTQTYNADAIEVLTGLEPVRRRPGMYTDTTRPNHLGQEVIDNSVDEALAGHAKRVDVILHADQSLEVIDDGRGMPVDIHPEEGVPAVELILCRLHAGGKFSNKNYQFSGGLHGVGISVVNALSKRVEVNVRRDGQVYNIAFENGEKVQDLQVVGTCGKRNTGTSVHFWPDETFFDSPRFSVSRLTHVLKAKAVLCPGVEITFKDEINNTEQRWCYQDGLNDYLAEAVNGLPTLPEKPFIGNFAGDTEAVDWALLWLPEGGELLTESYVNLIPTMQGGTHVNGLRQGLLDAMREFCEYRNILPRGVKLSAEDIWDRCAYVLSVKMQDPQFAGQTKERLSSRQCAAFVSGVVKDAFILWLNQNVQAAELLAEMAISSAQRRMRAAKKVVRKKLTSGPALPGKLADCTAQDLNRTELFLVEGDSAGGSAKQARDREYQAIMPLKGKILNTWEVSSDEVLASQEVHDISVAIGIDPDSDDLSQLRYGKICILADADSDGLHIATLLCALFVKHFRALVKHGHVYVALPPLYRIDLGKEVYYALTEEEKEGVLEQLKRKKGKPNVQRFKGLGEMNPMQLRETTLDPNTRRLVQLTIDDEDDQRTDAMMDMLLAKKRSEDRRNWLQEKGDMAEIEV

[3] = target: S. aureus DNA gyrase (Staphylococcus aureus, UniProt P0A0K8+P20831); conditions: for IC50: IC50 DNA gyrase; for inhibition at 50 µM: read-out: % inhibition DNA gyrase
S. aureus DNA gyrase, sequence (P0A0K8 whole entry): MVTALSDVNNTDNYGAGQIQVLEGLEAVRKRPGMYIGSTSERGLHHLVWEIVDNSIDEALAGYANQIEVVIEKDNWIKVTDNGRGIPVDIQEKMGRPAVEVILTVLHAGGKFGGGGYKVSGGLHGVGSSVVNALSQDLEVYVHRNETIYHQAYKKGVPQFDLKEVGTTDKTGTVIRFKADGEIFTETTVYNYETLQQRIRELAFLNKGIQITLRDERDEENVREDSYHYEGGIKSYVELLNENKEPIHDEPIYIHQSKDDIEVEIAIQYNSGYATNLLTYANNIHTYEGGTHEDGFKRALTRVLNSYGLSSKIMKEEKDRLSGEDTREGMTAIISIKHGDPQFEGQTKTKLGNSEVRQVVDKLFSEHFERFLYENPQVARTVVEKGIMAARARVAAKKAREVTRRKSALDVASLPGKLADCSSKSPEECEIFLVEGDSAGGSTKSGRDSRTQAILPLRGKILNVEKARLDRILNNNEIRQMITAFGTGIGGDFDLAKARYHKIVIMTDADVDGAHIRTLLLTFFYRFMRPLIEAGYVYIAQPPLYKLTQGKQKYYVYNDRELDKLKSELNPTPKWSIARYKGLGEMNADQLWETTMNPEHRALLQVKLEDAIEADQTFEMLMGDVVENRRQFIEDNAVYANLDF
S. aureus DNA gyrase, sequence (P20831 whole entry): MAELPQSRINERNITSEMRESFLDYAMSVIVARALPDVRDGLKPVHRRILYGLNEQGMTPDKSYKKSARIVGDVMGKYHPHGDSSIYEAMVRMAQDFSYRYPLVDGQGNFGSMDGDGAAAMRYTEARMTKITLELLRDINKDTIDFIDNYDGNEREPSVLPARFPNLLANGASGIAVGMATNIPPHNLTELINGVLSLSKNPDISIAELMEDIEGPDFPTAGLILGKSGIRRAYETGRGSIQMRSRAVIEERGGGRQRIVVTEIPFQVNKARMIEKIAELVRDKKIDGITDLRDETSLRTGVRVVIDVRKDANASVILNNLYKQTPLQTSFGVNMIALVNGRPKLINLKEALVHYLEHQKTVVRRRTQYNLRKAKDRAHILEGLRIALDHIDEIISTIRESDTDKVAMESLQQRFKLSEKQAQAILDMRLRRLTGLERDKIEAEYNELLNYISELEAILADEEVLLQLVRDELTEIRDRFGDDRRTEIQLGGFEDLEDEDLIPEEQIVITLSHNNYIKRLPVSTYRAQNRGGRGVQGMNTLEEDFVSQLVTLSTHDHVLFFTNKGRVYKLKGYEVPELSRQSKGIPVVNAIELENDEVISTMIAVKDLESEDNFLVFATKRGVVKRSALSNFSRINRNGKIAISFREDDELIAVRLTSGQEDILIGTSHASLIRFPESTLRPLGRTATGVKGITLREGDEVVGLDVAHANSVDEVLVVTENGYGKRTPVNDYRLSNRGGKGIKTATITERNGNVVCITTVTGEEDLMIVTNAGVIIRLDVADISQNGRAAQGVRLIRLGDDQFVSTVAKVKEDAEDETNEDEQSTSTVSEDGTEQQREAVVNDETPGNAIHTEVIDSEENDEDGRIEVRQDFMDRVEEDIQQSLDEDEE

[4] = target: S. aureus Topoisomerase IV (Staphylococcus aureus, UniProt P0C1S7+P0C1U9); conditions: for inhibition at 50 µM: read-out: % inhibition Topo IV
[5] = S. aureus, compound conc. 50 μM, percent of inhibition versus positive control, n/a = not active

E. coli DNA gyrase, sequence (P0AES4 whole entry, one chain of several): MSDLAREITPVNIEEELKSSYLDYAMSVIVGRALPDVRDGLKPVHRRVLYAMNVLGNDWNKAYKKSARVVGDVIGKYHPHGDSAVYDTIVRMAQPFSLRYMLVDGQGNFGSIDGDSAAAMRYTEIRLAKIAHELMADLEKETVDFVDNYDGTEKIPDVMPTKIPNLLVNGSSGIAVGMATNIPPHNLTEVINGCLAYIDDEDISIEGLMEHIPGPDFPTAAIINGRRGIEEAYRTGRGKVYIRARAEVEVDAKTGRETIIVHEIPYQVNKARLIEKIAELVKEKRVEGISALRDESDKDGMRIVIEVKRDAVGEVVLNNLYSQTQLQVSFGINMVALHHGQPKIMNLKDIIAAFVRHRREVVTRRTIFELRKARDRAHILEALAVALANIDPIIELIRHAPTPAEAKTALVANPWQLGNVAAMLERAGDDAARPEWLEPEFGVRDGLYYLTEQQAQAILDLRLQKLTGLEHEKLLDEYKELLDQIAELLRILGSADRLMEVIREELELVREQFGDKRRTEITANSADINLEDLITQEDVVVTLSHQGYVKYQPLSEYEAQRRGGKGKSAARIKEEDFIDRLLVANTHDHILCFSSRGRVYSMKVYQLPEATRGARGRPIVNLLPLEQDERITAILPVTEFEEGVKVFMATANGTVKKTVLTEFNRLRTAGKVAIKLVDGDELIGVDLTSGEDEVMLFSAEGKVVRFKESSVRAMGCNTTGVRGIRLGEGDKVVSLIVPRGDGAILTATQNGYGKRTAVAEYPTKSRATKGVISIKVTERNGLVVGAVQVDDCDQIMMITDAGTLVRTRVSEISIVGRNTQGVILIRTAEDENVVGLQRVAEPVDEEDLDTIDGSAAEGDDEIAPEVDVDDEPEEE

SMILES | IC50 [1] | inhibition at 50 µM [1] | IC50 [2] | inhibition at 50 µM [2] | IC50 [3] | inhibition at 50 µM [3] | IC50 ([4]; IC50 Topo IV) | inhibition at 50 µM [4, 5] | % inhibition DNA gyrase [1] | % inhibition Topo IV [2] | % inhibition DNA gyrase [3] | % inhibition Topo IV [4, 5] | inhibition at 50 µM [4] | IC50 ([4]; S. aureus, Table 4, eight half-log concentrations ranging from 0.1 to 300 μM, read-out: IC50 Topo IV)
O=C1COc2ncc(F)cc2N1[C@H]1CC[C@](CO)(NCc2cc3c(=O)oc4ccc(F)cc4c3[nH]2)CC1 [Compound 220, 8-fluoro-2-({[trans-4-(7-fluoro-2-oxo-2,3-dihydro-1H-pyrido[2,3-b][1,4]oxazin-1-yl)-1-(hydroxymethyl)cyclohexyl]amino}methyl)[1]benzopyrano[4,3-b]pyrrol-4(1H)-one] | 680 nM | 100% | 740 nM | 50% | 1970 nM | 100% | 2910 nM | 100% | – | – | – | – | – | –
O=c1oc2ccc(F)cc2c2[nH]c(CN[C@H]3CC[C@H](n4c(=O)cnc5ncc(F)cc54)CC3)cc12 [Compound 209, 8-fluoro-2-({[trans-4-(7-fluoro-2-oxopyrido[2,3-b]pyrazin-1(2H)-yl)cyclohexyl]amino}methyl)[1]benzopyrano[4,3-b]pyrrol-4(1H)-one] | 130 nM | 100% | 1000 nM | 100% | 300 nM | 100% | 220 nM | 100% | – | – | – | – | – | –
O=c1oc2ccccc2c2[nH]c(CNCC3CN(c4nccc5ccc(F)cc45)CCO3)cc12 (single isomer, unassigned) [Compound 183, 2-[({[4-(7-fluoroisoquinolin-1-yl)morpholin-2-yl]methyl}amino)methyl][1]benzopyrano[4,3-b]pyrrol-4(1H)-one] | 770 nM | – | 2480 nM | – | 740 nM | – | 190 nM | – | 81% | 77% | 84% | 85% | – | –
O=c1nc(NCC(O)CN2CCN(c3nccc4cc[n+]([O-])cc34)CC2)c2cc(F)ccc2o1 (centres unmarked) [Compound 164, 8-(4-(3-((6-fluoro-2-oxo-2H-benzo[e][1,3]oxazin-4-yl)amino)-2-hydroxypropyl)piperazin-1-yl)-2,7-naphthyridine 2-oxide] | 3770 nM | 100% | 1780 nM | 100% | 1460 nM | 100% | 700 nM | – | – | – | – | – | 100% | –
O=c1oc2ccccc2c2[nH]c(CNCC3CCN(c4nccc5ccc(F)cc45)C3)cc12 (single isomer, unassigned) [Compound 181, 2-[({[1-(7-fluoroisoquinolin-1-yl)pyrrolidin-3-yl]methyl}amino)methyl][1]benzopyrano[4,3-b]pyrrol-4(1H)-one] | 440 nM | – | 3670 nM | – | 730 nM | – | 360 nM | – | 53% | 91% | 92% | 50% | – | –
O=c1oc2ccccc2c2[nH]c(CNCC3CCN(c4nccc5ccc(F)cc45)C3)cc12 (single isomer, unassigned) [Compound 180, 2-[({[1-(7-fluoroisoquinolin-1-yl)pyrrolidin-3-yl]methyl}amino)methyl][1]benzopyrano[4,3-b]pyrrol-4(1H)-one] | 480 nM | 58% | 3780 nM | – | 1700 nM | 90% | 110 nM | 50% | – | 57% | – | – | – | –
COc1cnc2ccc(=O)n([C@H]3CC[C@H](NCc4cc5c(=O)oc6ccc(F)cc6c5[nH]4)CC3)c2c1 [Compound 204, 8-fluoro-2-({[trans-4-(7-methoxy-2-oxo-1,5-naphthyridin-1(2H)-yl)cyclohexyl]amino}methyl)[1]benzopyrano[4,3-b]pyrrol-4(1H)-one] | 50 nM | 100% | < 100 nM | 100% | 640 nM | 100% | < 100 nM | 100% | – | – | – | – | – | –
NC(=O)[C@]1(NCc2cc3c(=O)oc4ccc(F)cc4c3[nH]2)CC[C@H](N2C(=O)COc3ncc(F)cc32)CC1 [Compound 217, Trans-1-{[(8-fluoro-4-oxo-1,4-dihydro[1]benzopyrano[4,3-b]pyrrol-2-yl)methyl]amino}-4-(7-fluoro-2-oxo-2,3-dihydro-1H-pyrido[2,3-b][1,4]oxazin-1-yl)cyclohexane-1-carboxamide] | 1450 nM | 82% | 690 nM | 50% | 2150 nM | 100% | 2720 nM | 100% | – | – | – | – | – | –
O=C1COc2ncc(F)cc2N1C1CCN(CC(O)CNc2cc(=O)oc3ccc(F)cc23)CC1 (centres unmarked) [Compound 303, 7-fluoro-1-(1-{3-[(6-fluoro-2-oxo-2H-1-benzopyran-4-yl)amino]-2-hydroxypropyl}piperidin-4-yl)-1H-pyrido[2,3-b][1,4]oxazin-2(3H)-one] | 2670 nM | – | 620 nM | – | 9920 nM | – | > 100000 nM | – | – | – | – | – | – | –
COc1cnc2ncc(=O)n([C@H]3CC[C@@H](NCc4cc5c(=O)oc6ccc(F)cc6c5[nH]4)CC3)c2c1 [Compound 213, 8-fluoro-2-({[cis-4-(7-methoxy-2-oxopyrido[2,3-b]pyrazin-1(2H)-yl)cyclohexyl]amino}methyl)[1]benzopyrano[4,3-b]pyrrol-4(1H)-one] | 110 nM | 98% | 1000 nM | 97% | 280 nM | 100% | 580 nM | 84% | – | – | – | – | – | –
COc1cnc2c(c1)N([C@H]1CC[C@H](NCc3cc4c(=O)oc5ccc(F)cc5c4[nH]3)CC1)C(=O)CO2 [Compound 302, 8-fluoro-2-({[trans-4-(7-methoxy-2-oxo-2,3-dihydro-1H-pyrido[2,3-b][1,4]oxazin-1-yl)cyclohexyl]amino}methyl)[1]benzopyrano[4,3-b]pyrrol-4(1H)-one] | 590 nM | – | 120 nM | – | 580 nM | – | – | – | – | – | – | – | – | 3260 nM
COc1ccc2ccc(=O)n(C3CCN(CCc4cc5c(=O)oc6ccc(F)cc6c5[nH]4)CC3)c2n1 [Compound 202, 8-fluoro-2-{2-[4-(7-methoxy-2-oxo-1,8-naphthyridin-1(2H)-yl)piperidin-1-yl]ethyl}[1]benzopyrano[4,3-b]pyrrol-4(1H)-one] | – | 100% | – | 100% | – | 100% | – | – | – | – | – | – | 100% | –
COc1ccc2ncc(=O)n([C@H]3CC[C@H](NCc4cc5c(=O)oc6ccc(F)cc6c5[nH]4)CC3)c2c1 [Compound 208, 8-fluoro-2-({[trans-4-(7-methoxy-2-oxoquinoxalin-1(2H)-yl)cyclohexyl]amino}methyl)[1]benzopyrano[4,3-b]pyrrol-4(1H)-one] | 80 nM | 100% | 270 nM | 100% | 110 nM | 100% | 130 nM | 100% | – | – | – | – | – | –
O=c1oc2ccccc2c2[nH]c(CNCC3CN(c4nccc5ccc(F)cc45)CCO3)cc12 (single isomer, unassigned) [Compound 182, 2-[({[4-(7-fluoroisoquinolin-1-yl)morpholin-2-yl]methyl}amino)methyl][1]benzopyrano[4,3-b]pyrrol-4(1H)-one] | 740 nM | 61% | 3210 nM | – | 640 nM | 92% | 740 nM | – | – | 52% | – | 50a % | – | –
COc1cnc2ccc(=O)n(C3CCN(CCc4cc5c(=O)oc6ccc(F)cc6c5[nH]4)CC3)c2n1 [Compound 200] | 40 nM | 90% | < 100 nM | 100% | < 100 nM | 100% | < 100 nM | – | – | – | – | – | 100% | –
COc1ccc2ncc(=O)n([C@H]3CC[C@H](NCc4cc5c(=O)oc6ccc(F)cc6c5[nH]4)CC3)c2n1 [Compound 201, 8-fluoro-2-({[trans-4-(6-methoxy-3-oxopyrido[2,3-b]pyrazin-4(3H)-yl)cyclohexyl]amino}methyl)[1]benzopyrano[4,3-b]pyrrol-4(1H)-one] | < 100 nM | 100% | < 100 nM | 100% | 190 nM | 100% | < 100 nM | – | – | – | – | – | 100% | –
